From patent US8685987B2, “Substituted [1,2,4]triazolo[1,5-a]pyrimidines and their use as potassium channel modulators” (Ataxion, Inc., priority 2009, dated 2014) come the findings set out here.

The experiment has as its target T1, hSK1 channels (Homo sapiens, UniProt Q92952).
T1 construct: expressed in transfected cells; host or cells: HEK293
The experiment can be described thus: Whole-cell patch-clamp recording of SK current in HEK293 cells expressing hSK1 channels. Format: cell-based. As to conditions: SK1 activation. An excerpt: The compounds of the invention may be tested for their ability to modulate SK channels in vitro. Functional modulation can be determined by measuring the compound-induced change in SK current by the patch clamp technique as described in Strøbk et al.: “Pharmacological characterization of small-conductance Ca^2+-activated K channels expressed in HEK293 cells”, British Journal of Pharmacology (2000) 129, 991-999. From this type of measurements the potency of a given compound can be determined as e.g. Ki or IC50 values for blockers/inhibitors and EC50 values for openers/activators. Similar data can be obtained from other patch clamp configurations and from channels expressed endogenously in various cell lines.
The ionic current through small-conductance Ca^2+-activated K^+ channels (SK channels, subtype 1) is recorded using the whole-cell configuration of the patch-clamp technique in a classic patch-clamp set-up using HEK293 tissue culture cells expressing hSK1 channels as described in e.g. WO 2006/100212.
The SC100 value determined is defined as the Stimulating Concentration required for increasing the baseline current by 100%. The below SC100 values are an indication of the SK1 activating properties of the compounds of the invention.
For orientation: Patch clamp records ionic current or voltage across a cell membrane.
As to `Cc1cc(Cl)ccc1OC(C)c1ccnc2nc(NC=NOC(C)C)nn12` (stereo not drawn) [Example 6, N-{7-[1-(4-Chloro-2-methylphenoxy)ethyl]-[1,2,4]triazolo[1,5-a]pyrimidin-2-yl}-N′-isopropyloxy-formamidine], the “The SC100 (Stimulating Concentration required for increasing the baseline current by 100%)” value turned out to be 0.40 µM.

For `CON=CNc1nc2nccc(C(C)Oc3ccc(Cl)cc3C)n2n1` (stereo not drawn) [Example A, N-{7-[1-(4-Chloro-2-methylphenoxy)ethyl]-[1,2,4]triazolo[1,5-a]pyrimidin-2-yl}-N′-methoxy-formamidine], the “The SC100 (Stimulating Concentration required for increasing the baseline current by 100%)” value was 0.008 µM.

As for “N-{7-[1-(4-Chloro-2-methylphenoxy)-ethyl]-6-methyl-[1,2,4]triazolo[1,5-a]pyrimidin-2-yl}-N′-hydroxy-formamidine [Example 4]”, the “The SC100 (Stimulating Concentration required for increasing the baseline current by 100%)” value was determined as 0.20 µM.

Turning to `CON=CNc1nc2nccc(C(C)Oc3ccc(Cl)cc3Cl)n2n1` (stereo not drawn) [Example 2, N-{7-[1-(2,4-Dichlorophenoxy)ethyl]-[1,2,4]triazolo[1,5-a]pyrimidin-2-yl}-N′-methoxy-formamidine], the “The SC100 (Stimulating Concentration required for increasing the baseline current by 100%)” value stood at 0.005 µM.

Turning to `CCCON=CNc1nc2nccc(C(C)Oc3ccc(Cl)cc3C)n2n1` (stereo not drawn) [Example 5, N-{7-[1-(4-Chloro-2-methylphenoxy)ethyl]-[1,2,4]triazolo[1,5-a]pyrimidin-2-yl}-N′-propyloxy-formamidine], the “The SC100 (Stimulating Concentration required for increasing the baseline current by 100%)” value worked out at 0.003 µM.

As to `CON=CNc1nc2nccc(C(C)Oc3ccc(F)cc3)n2n1` (stereo not drawn) [Example B, N-{7-[1-(4-Fluorophenoxy)ethyl]-[1,2,4]triazolo[1,5-a]pyrimidin-2-yl}-N′-methoxy-formamidine], the “The SC100 (Stimulating Concentration required for increasing the baseline current by 100%)” value is 0.075 µM.

On to `CON=CNc1nc2nccc(C(C)Oc3ccc(Br)cc3)n2n1` (stereo not drawn) [Example 1, N-{7-[1-(4-Bromophenoxy)ethyl]-[1,2,4]triazolo[1,5-a]pyrimidin-2-yl}-N′-methoxy-formamidine], for which the “The SC100 (Stimulating Concentration required for increasing the baseline current by 100%)” value is 0.015 µM.

For the molecule `CON=CNc1nc2nccc(C(C)Oc3ccc(Cl)cc3)n2n1` (stereo not drawn) [Example 3, N-{7-[1-(4-Chlorophenoxy)ethyl]-[1,2,4]triazolo[1,5-a]pyrimidin-2-yl}-N′-methoxy-formamidine], the “The SC100 (Stimulating Concentration required for increasing the baseline current by 100%)” value was 0.04 µM.

With `CON=CNc1nc2nccc(C(C)(C)Oc3ccc(Cl)cc3C)n2n1` [Example 7, N-{7-[1-(4-Chloro-2-methylphenoxy)-1-methyl-ethyl]-[1,2,4]triazolo[1,5-a]pyrimidin-2-yl}-N′-methoxy-formamidine], the “The SC100 (Stimulating Concentration required for increasing the baseline current by 100%)” value was determined as 0.60 µM.
